Source: ChEMBL document CHEMBL1275494, “Microbiological and genotypic analysis of methicillin-resistant Staphylococcus aureus bacteremia” (2008)
Calls of active or inactive are those of the source. The calls are words filed in the database; no cut-off is given here.

Key:
Staphylococcus aureus [1] = experiment: Antibacterial activity against SCCmec type 4 genotype-positive and methicillin-resistant Staphylococcus aureus by CLSI method; format: functional, organism-based
Staphylococcus aureus [2] = experiment: Antibacterial activity against SCCmec type 2 genotype-positive and methicillin-resistant Staphylococcus aureus by CLSI method; format: functional, organism-based

CN(C)[C@@H]1C(O)=C(C(N)=O)C(=O)[C@@]2(O)C(O)=C3C(=O)c4c(O)cccc4[C@@](C)(O)[C@H]3C[C@@H]12
Activity (Staphylococcus aureus [1]): inactive

CCC[C@@H]1C[C@@H](C(=O)N[C@@H]([C@H]2O[C@H](SC)[C@H](O)[C@@H](O)[C@H]2O)[C@H](C)Cl)N(C)C1
Activity (Staphylococcus aureus [2]): inactive
Activity (Staphylococcus aureus [1]): Active

C[C@H]1COc2c(N3CCN(C)CC3)c(F)cc3c(=O)c(C(=O)O)cn1c23
Activity (Staphylococcus aureus [2]): inactive
Activity (Staphylococcus aureus [1]): Active
